{
  "source": "paper PMC9607081",
  "about": "(Membranes, 2022)",
  "assay_type_in_all_cases": "cell-based",
  "key": {"[1]": {"target": "T1, human GlyR α1 subunit P146 (CysL) substituted with Pro (Homo sapiens, UniProt P23415)", "T1 construct": "expressed in transfected cells; host or cells: Xenopus laevis oocytes injected with receptor mRNA", "T1 sequence (P23415 29-457)": "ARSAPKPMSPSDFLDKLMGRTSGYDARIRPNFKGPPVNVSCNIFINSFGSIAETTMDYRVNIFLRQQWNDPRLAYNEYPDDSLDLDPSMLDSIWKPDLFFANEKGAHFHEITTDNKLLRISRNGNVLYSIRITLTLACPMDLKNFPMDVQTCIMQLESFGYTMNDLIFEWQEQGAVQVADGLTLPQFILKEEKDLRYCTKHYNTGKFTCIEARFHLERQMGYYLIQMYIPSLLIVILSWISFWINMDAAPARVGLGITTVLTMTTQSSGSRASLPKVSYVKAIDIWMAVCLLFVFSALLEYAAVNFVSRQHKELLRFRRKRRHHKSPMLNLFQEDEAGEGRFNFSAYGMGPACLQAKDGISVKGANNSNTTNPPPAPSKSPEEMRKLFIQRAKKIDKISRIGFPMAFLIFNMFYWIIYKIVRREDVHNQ", "assay": "TEVC, oocytes, nonsense suppression, P146 Pro recovery", "settings": "for EC50: Table 3, nonsense suppression", "experimental": "Injection volumes were 50–100 nL per cell. […] The holding potential was −60 mV unless otherwise specified."}, "[2]": {"target": "T2, human GlyR α1 subunit P96A (Homo sapiens, UniProt P23415, P124A)", "T2 construct": "expressed in transfected cells; host or cells: Xenopus laevis oocytes injected with receptor mRNA", "T2 sequence (P23415 29-457 P124A)": "T1 sequence (P23415 29-457) with P96A", "assay": "Two-electrode voltage clamp of Xenopus oocytes expressing P96A GlyR", "settings": "for nH (Hill coefficient): Table 1, n = 5; for EC50: Table 1, −60 mV", "experimental": "(§1) Injection volumes were 50–100 nL per cell.\n(§2) All experiments were performed at 22–25 °C. […] The holding potential was −60 mV unless otherwise specified."}, "[3]": {"target": "T3, human GlyR α1 subunit P146A (Homo sapiens, UniProt P23415, P174A)", "T3 construct": "expressed in transfected cells; host or cells: Xenopus laevis oocytes injected with receptor mRNA", "T3 sequence (P23415 29-457 P174A)": "T1 sequence (P23415 29-457) with P146A", "assay": "Two-electrode voltage clamp of Xenopus oocytes expressing P146A GlyR", "settings": "for nH (Hill coefficient): Table 1, n = 5; for EC50: Table 1, −60 mV", "experimental": "as §1, §2"}, "[4]": {"target": "T4, human GlyR α1 subunit P146 (CysL) substituted with 2MeP (Homo sapiens, UniProt P23415, P174X)", "T4 sequence (P23415 29-457 P174X)": "T1 sequence (P23415 29-457) with P146X", "assay": "TEVC, oocytes, nonsense suppression, P146 2MeP", "settings": "for EC50: n = 3", "experimental": "The cDNA for the human GlyR α1 subunit was in pGEMHE (ThermoFischer Scientific, Bishops Stortford, UK). Site-directed mutagenesis was performed using QuikChange (Agilent Technologies, Milton Keynes, UK) to generate the appropriate codon. For non-canonical amino acid mutants and conventional mutants generated by nonsense suppression, the site of interest was mutated to the TAG stop codon. Receptor mRNA was then prepared by in vitro runoff transcription using the Ambion T7 mMessage mMachine kit (ThermoFischer Scientific, Bishops Stortford, UK). Noncanonical amino acids were ligated to tRNA as previously described.\nStage V-VI oocytes of Xenopus laevis were harvested and injected with RNAs as described previously. For nonsense suppression experiments, each cell was injected with 50–100 ng each of receptor mRNA and tRNA charged with the appropriate Pro analogue ~48 h before recording. For wild type and conventional mutants, each cell received a single injection of 10–25 ng of receptor mRNA ~24 h before recording. Injection volumes were 50–100 nL per cell.\nAs a negative control for suppression experiments at each site, unligated tRNA was co-injected with mRNA in the same manner as charged tRNA. […] Pro recovery (injecting tRNA charged with Pro to regenerate a wild type channel via nonsense suppression) was used alongside Pro analogues as a positive control.\nTwo-electrode voltage clamping of Xenopus oocytes was performed using standard electrophysiological procedures as previously, using an OpusXpress system (Axon Instruments, Inc., Union City, CA, USA). All experiments were performed at 22–25 °C. […] The holding potential was −60 mV unless otherwise specified. […] Data were analysed using Prism (GraphPad Software Inc., San Diego, CA, USA), fitting concentration-response data to the four-parameter logistic equation. Statistical analysis was performed using ANOVA with a Dunnett’s multiple comparisons post test."}, "[5]": {"target": "T5, human GlyR α1 subunit WT (Homo sapiens, UniProt P23415)", "T5 construct": "expressed in transfected cells; host or cells: Xenopus laevis oocytes injected with receptor mRNA", "T5 sequence (P23415 29-457)": "T1 sequence (P23415 29-457)", "assay": "Two-electrode voltage clamp of Xenopus oocytes expressing WT GlyR", "settings": "for nH (Hill coefficient): Table 1, n = 5; for EC50: Table 1, −60 mV; for % ImaxTau /ImaxGly: Tau maximal current relative to Gly maximal current", "experimental": "as §1, §2"}, "[6]": {"settings": "n = 5, read-out: pEC50 (converted)"}},
  "note": "Residue numbers refer to the chain shown, from its start. Where two headings read alike, the source gives them in different places.",
  "data": [
    {"smiles": "NCC(=O)O", "note": "[Gly, glycine]", "values": [
      {"measurement": "nH", "setting": "[1]; Table 2, n = 6", "value": "2.5 ± 0.4"},
      {"measurement": "nH", "setting": "[1]; Table 3, n = 4", "value": "3.2 ± 1.6"},
      {"measurement": "nH (Hill coefficient)", "setting": "[2]", "value": "2.2 ± 0.3"},
      {"measurement": "nH (Hill coefficient)", "setting": "[3]", "value": "2.4 ± 0.7"},
      {"measurement": "nH", "setting": "[4]; Table 2, n = 6", "value": "2.2 ± 0.5"},
      {"measurement": "nH", "setting": "[4]; Table 3, n = 3", "value": "3.6 ± 0.2"},
      {"measurement": "nH (Hill coefficient)", "setting": "[5]", "value": "2.3 ± 0.5"}
    ]},
    {"smiles": "NCCS(=O)(=O)O", "note": "[Tau, taurine]", "values": [
      {"measurement": "% ImaxTau /ImaxGly", "setting": "[1]; Table 3, n = 4", "value": "43 ± 5", "unit": "%"},
      {"measurement": "nH", "setting": "[1]; Table 3, n = 4", "value": "1.5 ± 0.3"},
      {"measurement": "EC50", "setting": "[1]; n = 4, read-out: EC50", "value": 1.03, "unit": "mM"},
      {"measurement": "EC50", "setting": "[1]; n = 4, read-out: pEC50 (converted)", "value": 1.04, "unit": "mM"},
      {"measurement": "nH (Hill coefficient)", "setting": "[2]", "value": "1.9 ± 0.2"},
      {"measurement": "EC50", "setting": "[2]; n = 5, read-out: EC50", "value": 2.44, "unit": "mM"},
      {"measurement": "EC50", "setting": "[2]; [6]", "value": 2.44, "unit": "mM"},
      {"measurement": "% ImaxTau /ImaxGly", "setting": "[2]; n = 5", "value": "36 ± 2", "unit": "%"},
      {"measurement": "nH (Hill coefficient)", "setting": "[3]", "value": "1.5 ± 0.3"},
      {"measurement": "EC50", "setting": "[3]; n = 5, read-out: EC50", "value": 1.41, "unit": "mM"},
      {"measurement": "EC50", "setting": "[3]; [6]", "value": 1.41, "unit": "mM"},
      {"measurement": "% ImaxTau /ImaxGly", "setting": "[3]; n = 5", "value": "39 ± 3", "unit": "%"},
      {"measurement": "EC50", "setting": "[4]; EC50, Table 3, nonsense suppression", "value": 3.18, "unit": "mM"},
      {"measurement": "nH", "setting": "[4]; Table 3, n = 3", "value": "2.4 ± 0.6"},
      {"measurement": "Emax", "setting": "[4]; Table 3, n = 3, read-out: % ImaxTau /ImaxGly", "value": "18 ± 2", "unit": "%"},
      {"measurement": "EC50", "setting": "[4]; pEC50, Table 3, nonsense suppression", "value": 3.18, "unit": "mM"},
      {"measurement": "nH (Hill coefficient)", "setting": "[5]", "value": "1.7 ± 0.3"},
      {"measurement": "EC50", "setting": "[5]; n = 5, read-out: EC50", "value": 583, "unit": "µM"},
      {"measurement": "EC50", "setting": "[5]; [6]", "value": 582, "unit": "µM"},
      {"measurement": "% ImaxTau /ImaxGly", "setting": "[5]; n = 5", "value": "50 ± 4", "unit": "%"},
      {"measurement": "% ImaxTau /ImaxGly", "setting": "[5]; n = 5, listed as Taurine", "value": 50, "unit": "%"}
    ]}
  ]
}
